Source: ChEMBL document CHEMBL2029308, “Synthesis and anti-leishmanial activity of 1-aryl-β-carboline derivatives against Leishmania donovani” (Bioorg Med Chem Lett, 2012)

Legend:
Leishmania donovani = assay: Antileishmanial activity against Leishmania donovani MHOM/ET/67/HU3 after 72 hrs by MTT assay; format: functional, organism-based; conditions: MHOM/ET/67/HU3, 72 h
[1] = Cytotoxicity against mouse peritoneal macrophages; format: cell-based, Peritoneal macrophage cell
[2] = Selectivity ratio of CC50 for mouse peritoneal macrophages to IC50 for Leishmania donovani MHOM/ET/67/HU3

SMILES	IC50 (Leishmania donovani)	CC50 [1]	Ratio CC50/IC50 [2]
O=[N+]([O-])c1ccc(-c2[nH]ccc3c4ccccc4nc2-3)cc1	> 100 µM	> 50 µM	–
O=C(Nc1ccc(-c2nccc3c2[nH]c2ccccc23)cc1)c1cccc2ccccc12	> 100 µM	> 50 µM	–
O=C(O)C1Cc2c([nH]c3ccccc23)C(c2ccc([N+](=O)[O-])cc2)N1 (stereo unspecified)	> 100 µM	> 50 µM	–
Nc1ccc(-c2nccc3c2[nH]c2ccccc23)cc1	46.6 µM	> 50 µM	–
CC(=O)Nc1ccc(-c2nccc3c2[nH]c2ccccc23)cc1	2.16 µM	> 50 µM	>20
O=C(Nc1ccc(-c2nccc3c2[nH]c2ccccc23)cc1)c1ccc2ccccc2c1	8.84 µM	> 50 µM	–
COc1ccc(C(=O)Nc2ccc(-c3nccc4c3[nH]c3ccccc34)cc2)cc1	12.3 µM	> 50 µM	–
O=C(Nc1ccc(-c2nccc3c2[nH]c2ccccc23)cc1)c1cccs1	15 µM	> 50 µM	–
CCCCCCCCCCCCCC(=O)Nc1ccc(-c2nccc3c2[nH]c2ccccc23)cc1	> 100 µM	> 50 µM	–
O=C(Nc1ccc(-c2nccc3c2[nH]c2ccccc23)cc1)c1ccco1	6.38 µM	> 50 µM	–
O=C(Nc1ccc(-c2nccc3c2[nH]c2ccccc23)cc1)c1ccccc1	9.68 µM	> 50 µM	–
C=CCCCCCCCCC(=O)Nc1ccc(-c2nccc3c2[nH]c2ccccc23)cc1	> 100 µM	> 50 µM	–
O=C(Nc1ccc(-c2nccc3c2[nH]c2ccccc23)cc1)c1ccc(F)cc1F	> 100 µM	> 50 µM	–
O=C(Nc1ccc(-c2nccc3c2[nH]c2ccccc23)cc1)c1ccc(F)c(F)c1	13.1 µM	> 50 µM	–
CC(C)(C)c1ccc(C(=O)Nc2ccc(-c3nccc4c3[nH]c3ccccc34)cc2)cc1	> 100 µM	> 50 µM	–
Cc1ccc(C(=O)Nc2ccc(-c3nccc4c3[nH]c3ccccc34)cc2)cc1	14.3 µM	> 50 µM	–
CCCCC(=O)Nc1ccc(-c2nccc3c2[nH]c2ccccc23)cc1	19.7 µM	> 50 µM	–
CCCCCCCCCCCC(=O)Nc1ccc(-c2nccc3c2[nH]c2ccccc23)cc1	> 100 µM	> 50 µM	–
O=C(/C=C/c1ccccc1)Nc1ccc(-c2nccc3c2[nH]c2ccccc23)cc1	7.7 µM	> 50 µM	–
Cc1cc(C(=O)Nc2ccc(-c3nccc4c3[nH]c3ccccc34)cc2)c(C)o1	30.1 µM	> 50 µM	–
O=C(Nc1ccc(-c2nccc3c2[nH]c2ccccc23)cc1)c1ccc(C(F)(F)F)cc1	> 100 µM	> 50 µM	–
N#Cc1ccc(C(=O)Nc2ccc(-c3nccc4c3[nH]c3ccccc34)cc2)cc1	5.31 µM	> 50 µM	–
CCCCCCCCCCCCCCCCOP(=O)([O-])OCC[N+](C)(C)C [MILTEFOSINE]	12.1 µM	–	–
